The values that follow come from patent publication US20260272988A1, “COMPOSITION COMPRISING MILK EXTRACELLULAR VESICLES AND GALACTOSE” (FrieslandCampina Nederland B.V., priority 2023, published 2026).

In the assay the test system is C2C12 myotubes. The experiment in a line: Seahorse mito-stress test, oxygen consumption rate (OCR) in differentiated C2C12 myotubes. It counts as cell-based. Particulars: for basal respiration (OCR): C2C12 myotubes exposed 24 hours, compared to control and vehicle control (PBS), FIG. 1 / FIG. 2. Here is the method:
The execution of the “Seahorse” experiment as used in this example is explained in more detail in Traba et al. (2016) J. Vis. Exp. (117), e54918 especially in FIG. 1 and text relating thereto, and in Rose S, et al. (2014) Oxidative Stress Induces Mitochondrial Dysfunction in a Subset of Autism Lymphoblastoid Cell Lines in a Well-Matched Case Control Cohort. PLoS ONE 9(1): e85436. doi:10.1371/journal.pone.0085436. Briefly, in the Seahorse essay, the Oxygen Consumption Rate (OCR) is measured before and after the addition of inhibitors to derive several parameters of mitochondrial respiration. Initially, baseline cellular OCR is measured, from which basal respiration can be derived by subtracting non-mitochondrial respiration. Next oligomycin, a complex V inhibitor, is added and the resulting OCR is used to derive ATP-linked respiration (by subtracting the oligomycin rate from baseline cellular OCR) and proton leak respiration (by subtracting non-mitochondrial respiration from the oligomycin rate). Next carbonyl cyanide-p-trifluoromethoxyphenyl-hydrazon (FCCP), a protonophore, is added to collapse the inner membrane gradient, allowing the ETC to function at its maximal rate, and maximal respiratory capacity is derived by subtracting nonmitochondrial respiration from the FCCP rate. […] Mitochondrial reserve capacity is calculated by subtracting basal respiration from maximal respiratory capacity. C2C12 cells were routinely cultured in High Glucose Dulbecco's Modified Eagle's Medium (DMEM) supplemented with 10% (v/v) fetal calf serum (FCS), 2 mM glutamine, 25 mM HEPES pH 7.2 and 1% (v/v/v) pen/strep/amphotericin B at 5% CO2 and 37 degrees Celsius. For Seahorse experiments, C2C12 myoblasts (passage 10-20, ATCC) were plated in the morning in XFe96 Seahorse culture plates at a density of 30.000 cells/well. Cells were kept in the flow cabinet for 1 h before being transferred to the incubator. After approximately 6-8 h cells, culture medium was replaced with C2C12 differentiation medium (DMEM with 2% horse serum). C2C12 cells were allowed to differentiate for 5 to 7 days. On the day before the Seahorse run, myotubes were exposed to different nutrients and/or Extracellular Vesicles (mEVs) for 24 hours. Exposure medium was prepared in C2C12 differentiation medium. Galactose and glucose were supplemented to differentiation medium from 1M stocks in H2O. […] In detail, following calibration and equilibration, plates were analyzed in measure/mix cycles of 3 minutes/2 minutes, respectively, in 180 ul Seahorse assay medium. […] In the final injection the nuclear fluorescent stain, Hoechst (40 uM), was also injected, to allow for cell number quantification. […] Images were analyzed using in-house generated scripts in ImageJ and R for processing data. […]

Regarding `O=C[C@H](O)[C@@H](O)[C@@H](O)[C@H](O)CO` [Sample 8, Galactose], the “basal respiration (OCR)” value is “increase”.
`O=C[C@H](O)[C@@H](O)[C@@H](O)[C@H](O)CO` [Sample 7, Galactose]: the “basal respiration (OCR)” value is recorded as “increase”.
For the compound `O=C[C@H](O)[C@@H](O)[C@@H](O)[C@H](O)CO` [Sample 6, Galactose], the “basal respiration (OCR)” value is given as “increase”.
As for `O=C[C@H](O)[C@@H](O)[C@@H](O)[C@H](O)CO` [galactose, D-galactose], the “effect of a higher concentration on basal respiration” value (C2C12 myotubes, 1.4, 2.75, 5.5 mM, FIG. 2) is “increases”.
